The target in assay [1] is T1, properdin binding to C3bBb (Homo sapiens, UniProt P01024+P27918).
T1 construct: The resulting convertase proteolytically modifies C3, producing the C3b fragment; tissue Sigma Chemical Company (serum)
The assay can be described thus: C3b(Bb)-properdin binding inhibition in human serum (ELISA). The conditions noted are these: peptides; tested as described in Example 2; read-out: IC50, blocking of C3bBb binding. The protocol:
This assay was carried out as described in Example 1 above with some changes. Briefly, microtiter wells were coated with C3b, washed, blocked and incubated with various concentrations of normal human serum (NHS) (Sigma Chemical Company, Cat. No. S1764) diluted in blocking solution for 2 hours at room temperature. Under the conditions of this binding assay, factor B in serum will bind solid phase-bound C3b and, after cleavage by factor D in serum, generates C3bBb. Properdin is known to bind C3bBb with high affinity (Farries, T. C., P. J. Lachmann, and R. A. Harrison, 1988, Biochem. 252:47-54). Uncoated wells served as background controls. After washing, bound-properdin was detected with the anti-properdin antibody as described in Example 1 above.
To evaluate the effect of the blocking antibody to inhibit properdin binding to C3b(Bb), various concentrations of the blocking antibody described in Example 1 above were added to a fixed concentrations of serum (4% in blocking solution). The amount of properdin bound to C3b(Bb) was detected using the detection system described in Example 1 above.
A general note: An ELISA detects its analyte on a solid surface through an enzyme-linked reagent.

Assay [2] has as its target T2, binding of properdin to C3b coated plates (Homo sapiens, UniProt P01024).
T2 construct: The resulting convertase proteolytically modifies C3, producing the C3b fragment
The settings on record: peptides at 0-200 μg/ml; cited from earlier work.

The test system of assay [3] is C5b-9 membrane-attack complex (MAC) formation via the alternative pathway. Description: Alternative pathway-dependent MAC assay on LPS-coated wells (ELISA). The class given is biochemical, human. The conditions noted are these: peptides; ELISA as described in Example 3; read-out: IC50, inhibition of MAC formation. An excerpt: The binding data of Examples 1 and 2 above reveal that the properdin monoclonal antibody prevents the binding of properdin to C3b and the functional C3 convertase (C3bBb). […] The final end product of this pathway is the C5b-9 membrane-attack complex (MAC). To analyze the effects of the properdin antibody on MAC formation via the alternative pathways, an assay was utilized in which bacterial LPS was used as a substrate to initiate the alternative complement pathway cascade.
Microtiter wells were coated with LPS (2 μg/50 μl per well) in VBS overnight at 4° C. Uncoated wells served as background controls. After aspirating the LPS solution, wells were treated with blocking solution and incubated with various concentrations of normal human serum. Following a 3 hour incubation at 37° C., deposited MAC was detected with mouse anti-human soluble C5b-9 monoclonal antibody (Quidel, Cat. No. A239) using standard ELISA methodologies essentially as described in the Examples above. The effect of the blocking antibody on the MAC formation was evaluated by adding various concentrations of blocking antibody to a fixed concentration of serum (4% in blocking solution). The amount of inhibition of soluble C5b-9 formation was determined using the antibody detection system described in the Examples above.

The subject of assay [4] is Fcγ receptors on neutrophils. Description: Chemiluminescence assay for superoxide production in diluted whole blood. It is filed as cell-based. The conditions noted are these: 5 μg/ml properdin alone. The source says: Such agents may be screened for their ability to activate Fcγ receptors by a variety of assays known in the art. Since superoxide generation is one of the classic responses of neutrophils and other phagocytes to activation via Fcγ receptors (RII), a specific assay for superoxide release from cells in diluted whole blood was utilized to screen and evaluate agents and the possible role of Fcγ receptors in neutrophil activation by such an agent. Monoclonal antibody agents are generally ineffective aggregating agents upon binding to their antigen and thus ineffective to activate Fcγ receptors via immune complex formation. However, Fcγ activation was detected for a blocking anti-properdin monoclonal antibody as follows.
A chemiluminescence assay for superoxide production in diluted whole blood was performed (Tose, M. F. and A. Itamedani, 1992, Am. J. Clin. Pathol. 97:566-573). Fresh blood was collected by a finger prick and rapidly diluted 350-fold into phenol red-free RPMI-1640 media containing Pen-Strep which was buffered with 10 mM HEPES (pH 7.4) at 37° C. The media also contains 10 μM lucigenin (Sigma Chemical Co.), a compound which becomes chemiluminescent when reduced by superoxide. […] At regular intervals, chemiluminescence was monitored by transferring each sample into a liquid scintillation counter (Packard Model 1900 TR) operated in a single photon mode to determine the “cpm”.

The next assay addresses T3, human C3b (Homo sapiens, UniProt P01024).
T3 construct: The resulting convertase proteolytically modifies C3, producing the C3b fragment; purchased Calbiochem, San Diego, Calif; 204860
The assay can be described thus: C3b-properdin binding ELISA (properdin titration on immobilized C3b). The conditions noted are these: FIG. 1, read-out: apparent binding constant (concentration of properdin needed to reach half-maximal binding to C3b). The protocol: Polystyrene microtiter plates were coated with human C3b (0.5 μg/50 μl per well) (Calbiochem, San Diego, Calif., Cat. No. 204860) in Veronal buffered saline (VBS): (5 mM diethyl barbiturate, 120 mM NaCl, 5 mM MgCl2, 5 mM EGTA) overnight at 4° C. After aspirating the C3b solution, wells were blocked with VBS containing 0.5% human serum albumin (HSA) (Sigma Chemical Company, St. Louis, Mo., Cat. No. A9511) for 2 hours at room temperature. Wells without C3b coating served as background controls. Aliquots of human properdin (or factor P) (Advanced Research Technology, San Diego, Calif., Cat. No. A139) at varying concentrations in blocking solution were added to the wells. Following a 2 hour incubation at room temperature, the wells were extensively rinsed with VBS.
C3b-bound properdin was detected by the addition of mouse monoclonal anti-human properdin antibody (detection antibody) (Quidel, San Diego, Calif., anti-human properdin monoclonal antibody P#2, Cat. No. A235) at 1:1000 dilution in blocking solution, which was allowed to incubate for 1 hour at room temperature. […] After incubation for 10 minutes at 25° C., the reaction of TMB was quenched by the addition of 100 μl of phosphoric acid, and the plate was read at 450 nm in a microplate reader (e.g., SPECTRA MAX 250, Molecular Devices, Sunnyvale, Calif.). […]

Residues, ends and D or L forms follow the SMILES beside them. No end group written: not given here.

`CC(=O)NCC(=O)N[C@@H](CC(C)C)C(=O)N[C@@H](CS)C(=O)N[C@@H](CCC(N)=O)C(=O)N1CCC[C@H]1C(=O)N[C@@H](CS)C(=O)N[C@@H](CCCNC(=N)N)C(=O)N[C@@H](CO)C(=O)N1CCC[C@H]1C(=O)N[C@@H](CCCNC(=N)N)C(=O)O` [Peptide 1] (Ac-GLCQPCRSPR-OH; N-terminus and C-terminus assumed): the values for the IC50 in assay [1] and in assay [3] were 400 to 600 µM and 268 µM, respectively. The “compete with properdin for C3 binding” value in assay [2] was “compete”.
For the molecule “Ac-CRSPRWSLWS (N-terminus assumed) [peptide 2]”, the half-inhibitory concentration (IC50) (as a rule, the concentration needed to halve the response being measured) in assay [1] is 400 to 600 µM; in assay [3], 335 µM. In addition, the “compete with properdin for C3 binding” value in assay [2] was “compete”.
With “Ac-RYRRCVGWNG (N-terminus assumed) [peptide 3]”, the IC50 in assay [1] is 400 to 600 µM; in assay [3], 242 µM. Further, in assay [2], the “compete with properdin for C3 binding” value is listed as “compete”.
Regarding “human properdin: human properdin (or factor P), Advanced Research Technology Cat. No. A139”, the “superoxide levels over control levels” value in assay [4] is reported as “not significantly elevated”. For the same molecule, the Kd with human C3b was around 0.001 µM.

These data come from patent US20030198636A1, “Process for inhibiting complement activation via the alternative pathway” (priority 1997, published 2003).
